Source: patent US20150297482A1, “MALODOR COUNTERACTING COMPOSITIONS AND METHOD FOR THEIR USE TO COUNTERACT SWEAT MALODOR” (FIRMENICH SA, priority 2009, published 2015)
Like-named read-outs stand apart in the source and are kept apart here.

System: Staphylococcus haemolyticus CNCM I-4170
Assay: Protocol A: in-vitro malodor inhibition (free thiol groups from Cys-Gly precursor, DTNB absorbance at 412 nm)
Type: cell-based
Conditions: for inhibition at 0.0012 % / inhibition at 0.0025 % / inhibition at 0.006 % / inhibition at 0.0125 % / inhibition at 0.025 % / inhibition at 0.05 % / inhibition at 0.0006 % / inhibition at 0.005 %: Staphylococcus haemolyticus, CNCMI4170, read-out: Ingredient Malodor Inhibition Value (%); for inhibition at 0.0006 %: 0.0006 w/v % in medium
From the text: Further details of such a screening and % inhibition measurement and definition are described further on in this application. The precursor used, which may also be in the form of a human sweat sample, typically generates malodorant sulfur compounds when acted upon by the Staphylococcus haemolyticus cells, or by a β-lyase present in such cells. The malodor inhibition coefficient, as defined herein, reflects the % of reduction in free SH groups generated in the above-mentioned medium by the enzymatic activity of the bacterial cells when in presence of the MOC ingredient or MOC composition in question, as compared to the same measurement in their absence. […] Alternatively, the bacterial cells can be replaced by a β-lyase present in said cells. […] Detection of enzymatic activity inhibition is measured via the sulfur groups, namely thiol groups, freed from the precursor bacterial transformation, by comparison with the reference experiment in the absence of the respective MOC ingredient, said sulfur groups being detected by interaction with DTNB, a known chemical detector system for thiols. The reaction can be monitored by absorbance reading at 412 nm. The procedure can be performed indifferently with either a purified or semi-purified enzyme or intact bacterial cells, as in the case described here. Malodor inhibition coefficient is measured as a function of the percentage of free thiol groups in the medium, over time, by an absorbance method, and reflects the reduction in malodor obtained in the presence of the MOC ingredients and compositions. […] At the end of the growth phase, the bacterial cells were harvested by centrifugation at 5000 rpm for 15 min. The cell pellet was then washed with 0.1 volumes of sterile potassium phosphate buffer 0.1 M, pH 7.5. […] The precursor was used at 0.17 mM final concentration. • Detection reagent DTNB • DTNB (5,5′-Dithio-bis-(2-nitrobenzoic acid; […]

[1] = Table 2, 0.0012 w/v % in medium
[2] = Table 2, 0.0025 w/v % in medium
[3] = Table 2, 0.0125 w/v % in medium

**Q.** Which “Ingredient Malodor Inhibition Value (%)” value (0.0012 w/v % in medium) does the source give for `C[C@H]1[C@@H]2CC(C[C@@]13C=CC(=O)CC3)C2(C)C` (single isomer, unassigned; (+)) here?
**A.** Its value is 0.00%.

**Q.** And the “Ingredient Malodor Inhibition Value (%)” value (0.0025 w/v % in medium)?
**A.** Its value is 14.02%.

**Q.** And the “Ingredient Malodor Inhibition Value (%)” value (0.006 w/v % in medium)?
**A.** Its value is 26.00%.

**Q.** And the “Ingredient Malodor Inhibition Value (%)” value (0.0125 w/v % in medium)?
**A.** The value was 72.64%.

**Q.** And the “Ingredient Malodor Inhibition Value (%)” value (0.025 w/v % in medium)?
**A.** Its value is 75.94%.

**Q.** And the “Ingredient Malodor Inhibition Value (%)” value (0.05 w/v % in medium)?
**A.** The value was 75.68%.

**Q.** `O=C1CCCCCCCCCCC(=O)OCCO1` [1,4-Dioxacyclohexadecane-5,16-dione] was tested. Which inhibition at 0.0012 % (0.0012 w/v % in medium) did it give?
**A.** Its inhibition at 0.0012 % is 0%.

**Q.** What about the inhibition at 0.0025 % (0.0025 w/v % in medium) of the same compound?
**A.** The inhibition at 0.0025 % was 0%.

**Q.** And the inhibition at 0.006 % (0.006 w/v % in medium)?
**A.** Its inhibition at 0.006 % is 0%.

**Q.** And the inhibition at 0.0125 % (0.0125 w/v % in medium)?
**A.** Its inhibition at 0.0125 % is 28.2%.

**Q.** What about the inhibition at 0.025 % (0.025 w/v % in medium) of the same compound?
**A.** The inhibition at 0.025 % was 37.3%.

**Q.** What about the inhibition at 0.05 % (0.05 w/v % in medium) of the same compound?
**A.** Its inhibition at 0.05 % is 36.5%.

**Q.** Which inhibition at 0.0006 % (Table 2) does the source give for `CCCCCCCCC/C=C/C=O` [(E)-2-Dodecenal] here?
**A.** The inhibition at 0.0006 % was 10.4%.

**Q.** And the inhibition at 0.0012 % [1]?
**A.** The inhibition at 0.0012 % was 29.7%.

**Q.** And the inhibition at 0.0025 % [2]?
**A.** Its inhibition at 0.0025 % is 55.4%.

**Q.** And the inhibition at 0.005 % (Table 2, 0.005 w/v % in medium)?
**A.** Its inhibition at 0.005 % is 86.9%.

**Q.** And the inhibition at 0.0125 % [3]?
**A.** Its inhibition at 0.0125 % is 94%.

**Q.** What does the source list for Vetyverone?
**A.** Ingredient Malodor Inhibition Value (%) [1]: 10.9%; Ingredient Malodor Inhibition Value (%) [2]: 10.40%; Ingredient Malodor Inhibition Value (%) (Table 2, 0.005 w/v % in medium): 44.6%; Ingredient Malodor Inhibition Value (%) (Table 2, 0.025 w/v % in medium): 47.1%; Ingredient Malodor Inhibition Value (%) (Table 2, 0.05 w/v % in medium): 54.2%

**Q.** What does the source list for `CC1=CC2CC(C=O)C1CC2C(C)C` (stereo not shown) [8-Isopropyl-6-methyl-bicyclo[2.2.2]oct-5-ene-2-carbaldehyde]?
**A.** inhibition at 0.0012 % [1]: 18.9%; inhibition at 0.0025 % [2]: 28.3%; inhibition at 0.005 % (Table 2, 0.005 w/v % in medium): 76.9%; inhibition at 0.0125 % [3]: 84.5%; inhibition at 0.025 % (Table 2, 0.025 w/v % in medium): 82.9%; inhibition at 0.05 % (Table 2, 0.05 w/v % in medium): 88.2%

**Q.** Which results are given for `CC1=CC[C@H](C(C)CC=O)CC1` (single isomer, unassigned; (+)) [(+)-(4R)-1-P-Menthene-9-carbaldehyde]?
**A.** Ingredient Malodor Inhibition Value (%) [1]: 0.00%; Ingredient Malodor Inhibition Value (%) [2]: 3.44%; Ingredient Malodor Inhibition Value (%) (Table 2, 0.005 w/v % in medium): 34.61%; Ingredient Malodor Inhibition Value (%) [3]: 81.68%; Ingredient Malodor Inhibition Value (%) (Table 2, 0.025 w/v % in medium): 97.82%

**Q.** How did the inhibition at 0.0012 % [1] turn out when `CCCCC/C=C/CCC=O` [(E)-4-Decenal] was run?
**A.** Its inhibition at 0.0012 % is 22%.

**Q.** And the inhibition at 0.0025 % [2]?
**A.** The inhibition at 0.0025 % was 28.2%.

**Q.** What about the inhibition at 0.005 % (Table 2, 0.005 w/v % in medium) of the same compound?
**A.** The inhibition at 0.005 % was 66.6%.

**Q.** What about the inhibition at 0.0125 % [3] of the same compound?
**A.** Its inhibition at 0.0125 % is 90.1%.

**Q.** And the inhibition at 0.025 % (Table 2, 0.025 w/v % in medium)?
**A.** Its inhibition at 0.025 % is 100%.

**Q.** With `CCC(C)CCCC(C)(C)O` (stereo not shown) [Tetrahydromyrcenol] as the compound, how does the “Ingredient Malodor Inhibition Value (%)” value (0.0012 w/v % in medium) read?
**A.** Its value is 0.00%.

**Q.** And the “Ingredient Malodor Inhibition Value (%)” value (0.0025 w/v % in medium)?
**A.** Its value is 0.00%.

**Q.** And the “Ingredient Malodor Inhibition Value (%)” value (0.006 w/v % in medium)?
**A.** The value was 0.00%.

**Q.** And the “Ingredient Malodor Inhibition Value (%)” value (0.0125 w/v % in medium)?
**A.** Its value is 0.00%.

**Q.** And the “Ingredient Malodor Inhibition Value (%)” value (0.025 w/v % in medium)?
**A.** Its value is 41.38%.

**Q.** And the “Ingredient Malodor Inhibition Value (%)” value (0.05 w/v % in medium)?
**A.** Its value is 72.56%.

**Q.** What about the “Ingredient Malodor Inhibition Value (%)” value (0.1 w/v % in medium) of the same compound?
**A.** Its value is 66.63%.

**Q.** Which results are given for `CC1(C)CCCC2(C)C1CCC1(C)OCCC12` (stereo not shown) [Ambrox ®, 8,12-epoxy-13,14,15,16-tetranorlabdane]?
**A.** Ingredient Malodor Inhibition Value (%) (0.0012 w/v % in medium): 0.00%; Ingredient Malodor Inhibition Value (%) (0.0025 w/v % in medium): 0.00%; Ingredient Malodor Inhibition Value (%) (0.05 w/v % in medium): 18.23%; Ingredient Malodor Inhibition Value (%) (0.1 w/v % in medium): 38.00%

**Q.** Which results are given for `CC(C)c1cccc(C(C)CC=O)c1` (stereo not shown) [3-(3-Isopropyl-1-phenyl)butanal]?
**A.** Ingredient Malodor Inhibition Value (%) [1]: 16.63%; Ingredient Malodor Inhibition Value (%) [2]: 30.10%; Ingredient Malodor Inhibition Value (%) (Table 2, 0.005 w/v % in medium): 73.81%; Ingredient Malodor Inhibition Value (%) [3]: 95.51%; Ingredient Malodor Inhibition Value (%) (Table 2, 0.025 w/v % in medium): 99.45%; Ingredient Malodor Inhibition Value (%) (Table 2, 0.05 w/v % in medium): 97.34%

**Q.** How did the inhibition at 0.0012 % [1] turn out when `CC(C)CCCC(C)CC=O` (stereo not shown) [3,7-Dimethyloctanal] was run?
**A.** The inhibition at 0.0012 % was 0%.

**Q.** And the inhibition at 0.0025 % [2]?
**A.** Its inhibition at 0.0025 % is 0%.

**Q.** And the inhibition at 0.005 % (Table 2, 0.005 w/v % in medium)?
**A.** The inhibition at 0.005 % was 18.1%.

**Q.** And the inhibition at 0.0125 % [3]?
**A.** Its inhibition at 0.0125 % is 66.7%.

**Q.** What does the source list for `CC(C=O)Cc1ccc(C(C)(C)C)cc1` (stereo not shown) [Lilial ®, 3-(4-tert-butylphenyl)-2-methylpropanal]?
**A.** inhibition at 0.0012 % (0.0012 w/v % in medium): 0.9%; inhibition at 0.0025 % (0.0025 w/v % in medium): 9.47%; inhibition at 0.006 % (0.006 w/v % in medium): 37.5%; inhibition at 0.0125 % (0.0125 w/v % in medium): 81%; inhibition at 0.025 % (0.025 w/v % in medium): 90%

**Q.** Which results are given for `CCCCCCC/C=C\CCC=O` [(Z)-4-Dodecenal]?
**A.** inhibition at 0.0006 % (Table 2): 0%; inhibition at 0.0012 % [1]: 0%; inhibition at 0.0025 % [2]: 6.96%; inhibition at 0.005 % (Table 2, 0.005 w/v % in medium): 76.5%

**Q.** What does the source list for `C=CCCCCCCCCC=O` [10-Undecenal]?
**A.** inhibition at 0.0012 % [1]: 3%; inhibition at 0.005 % (Table 2, 0.005 w/v % in medium): 49.2%
